Data taken from publication PMC7986153, “A Functional Chemiluminescent Probe for in Vivo Imaging of Natural Killer Cell Activity Against Tumours” (Angewandte Chemie (International Ed. in English), 2021).
Where a SMILES comes first, the peptide text is derived from it. The star is where a group is joined. AMC = Cc1cc(=O)oc2cc(N*)ccc12

Target: T1, hr‐granzyme B (Homo sapiens, UniProt P10144)
T1 construct: in the absence and presence of active human recombinant (hr)‐granzyme B
Experiment: Time-course signal-to-noise ratios after reaction with granzyme B
Assay type: biochemical
Settings: Ac-IEPD-AMC 25 μM, hr-granzyme B 20 nM, aqueous buffer 37 °C, fluorescence 450 nm, over 30 minutes; mean ± SEM, n=6
Protocol: In vitro characterisation assays. Enzymatic assays were run in a 384-well format in a PCR opaque microplate (Thermo Scientific). All experiments were performed at least in triplicate. Dilutions and reactions using human GZM B and human neutrophil elastase were prepared in 50 mM Tris-HCl and 100 mM NaCl (pH 7.4). GZM A assays were performed in 25 mM HEPES, 0.1% CHAPS and 10 mM DTT (pH 7.5). Dilutions and incubations with CASP8 and CASP9 were prepared in 50 mM HEPES, 100 mM NaCl, 0.1% Triton X-100, 10 mM DTT, 1 mM EDTA and 10% glycerol (pH 7.4). Any other tested biomolecules were prepared in PBS. Proteolytic activity was determined by calculating the fold change in chemiluminescence signal (or fluorescence signal in the case of Ac - IEPD-AMC) over background signal provided by the corresponding dilution of the probes with the enzyme using a spectrophotometer (Synergy H1 Hybrid Reader, BioTek) at 37°C.
Unless otherwise stated, probes were utilized at a concentration of 100 μM. Enzyme concentration used: 20 nM (except CASP9, which was used at 200 nM) and all other biomolecules were tested at 100 μM. In the case where an inhibitor was used, the enzyme was pre-incubated for 1 h with the inhibitor (100 µM) before addition of probe 1.
Cell culture. […]

T1 sequence (P10144 21-247): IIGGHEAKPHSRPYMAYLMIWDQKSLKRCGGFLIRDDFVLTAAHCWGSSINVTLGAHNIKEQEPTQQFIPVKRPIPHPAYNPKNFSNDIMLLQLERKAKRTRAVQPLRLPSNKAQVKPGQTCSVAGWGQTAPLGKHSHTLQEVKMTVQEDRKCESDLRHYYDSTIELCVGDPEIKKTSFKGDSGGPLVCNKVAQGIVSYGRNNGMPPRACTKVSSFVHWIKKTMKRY

Which “Signal‐to‐noise (S/N) ratio” value does the source give for `CC[C@H](C)[C@H](NC(C)=O)C(=O)N[C@@H](CCC(=O)O)C(=O)N1CCC[C@H]1C(=O)N[C@@H](CC(=O)O)C(=O)Nc1ccc2c(C)cc(=O)oc2c1` [Ac‐IEPD‐AMC] (Ac-IEPD-{AMC}) here?
Its value is “under 5”.
